The data set deals with T1, thermolysin (Bacillus thermoproteolyticus, UniProt P00800).
T1 sequence (P00800 233-548): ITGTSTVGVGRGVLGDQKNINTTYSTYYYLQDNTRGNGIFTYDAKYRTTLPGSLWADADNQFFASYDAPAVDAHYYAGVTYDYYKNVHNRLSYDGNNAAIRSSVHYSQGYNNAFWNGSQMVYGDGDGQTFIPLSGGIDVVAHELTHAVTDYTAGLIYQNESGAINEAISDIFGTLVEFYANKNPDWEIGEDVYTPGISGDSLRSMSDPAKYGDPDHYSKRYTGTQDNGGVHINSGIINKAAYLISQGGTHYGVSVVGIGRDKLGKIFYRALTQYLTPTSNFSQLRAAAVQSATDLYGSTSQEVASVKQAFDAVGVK
Description: Proteolytic stability: half-life to thermolysin degradation. It is filed as in vitro ADME. Particulars: for Change in Half-Life to Thermolysin Degradation: glyco-variant minus its corresponding unglycosylated CBM (e.g. 2-1), *** not used in the correlation plot; for half-life: thermolysin (isolated protease), thermolysin degradation, mean of three trials ± SD, procedures as described previously (ESI ref 18). Here is the method:
All error bars reported are standard deviations of data achieved from three separate trials.
cellulose that were determined in accordance with our procedures as described previously 18.
The results are presented as mean of three trials ± SD. *Denotes an averaged value of four trials

SMILES strings stand for the structures. Bridge positions count the residues as written; N and C are the ends. Peptide text beside a SMILES is read from it. * marks the point of attachment. X8 = O=P(O)(O)OC[C@H]1O[C@H](O[C@H]2[C@@H](O)[C@H](O)[C@@H](CO)O[C@@H]2*)[C@@H](O)[C@@H](O)[C@@H]1O; X2 = OC[C@H]1O[C@H](O[C@H]2[C@@H](O)[C@H](O)[C@@H](CO)O[C@@H]2*)[C@@H](O)[C@@H](O)[C@@H]1O; X4 = OC[C@H]1O[C@H](OC[C@H]2O[C@H](*)[C@@H](O)[C@@H](O)[C@@H]2O)[C@H](O)[C@@H](O)[C@@H]1O

This is an account of results in article PMC5580309, “Molecular-scale features that govern the effects of O-glycosylation on a carbohydrate-binding module” (Chemical Science, 2015).

Turning to `CC[C@H](C)[C@@H]1NC(=O)CNC(=O)CNC(=O)[C@@H](NC(=O)[C@H](CCC(N)=O)NC(=O)CNC(=O)[C@H](Cc2ccc(O)cc2)NC(=O)[C@H](Cc2c[nH]cn2)NC(=O)[C@H](CO[C@H]2O[C@H](CO[C@H]3O[C@H](CO)[C@@H](O)[C@H](O)[C@H]3O)[C@@H](O)[C@H](O)[C@@H]2O)NC(=O)[C@H](CCC(N)=O)NC(=O)[C@@H](N)[C@@H](C)O)CSSC[C@@H]2NC(=O)[C@H]([C@@H](C)O)NC(=O)[C@H]([C@@H](C)O)NC(=O)CNC(=O)[C@H](CO)NC(=O)[C@H](C)NC(=O)[C@H](CSSC[C@@H](C(=O)N[C@@H](CC(C)C)C(=O)O)NC(=O)[C@H](CCC(N)=O)NC(=O)[C@H](CO)NC(=O)[C@H](Cc3ccc(O)cc3)NC(=O)[C@H](Cc3ccc(O)cc3)NC(=O)[C@@H]3CCCN3C(=O)[C@H](CC(N)=O)NC(=O)[C@H](CC(C)C)NC(=O)[C@H](C(C)C)NC(=O)[C@H](CCC(N)=O)NC2=O)NC(=O)[C@H](C(C)C)NC(=O)[C@H]([C@@H](C)O)NC(=O)[C@@H]2CCCN2C(=O)CNC(=O)[C@H](CO)NC(=O)[C@H](Cc2ccc(O)cc2)NC(=O)CNC1=O` [CBM variant 30] (H-TQS(X4)HYGQCGGIGYSGPTVCASGTTCQVLNPYYSQCL-OH; disulfide 8-25, 19-35), the “Change in Half-Life to Thermolysin Degradation” value (“Change in Half-Life” for short) was 33 min and the half-life – broadly, the time in which the quantity being followed falls by half – was 46.8 ± 6.6 min. With `CC[C@H](C)[C@@H]1NC(=O)CNC(=O)CNC(=O)[C@@H](NC(=O)[C@H](CCC(N)=O)NC(=O)CNC(=O)[C@H](Cc2ccc(O)cc2)NC(=O)[C@H](Cc2c[nH]cn2)NC(=O)[C@H](CO[C@H]2O[C@H](CO)[C@@H](O)[C@H](O)[C@@H]2O[C@H]2O[C@H](COP(=O)(O)O)[C@@H](O)[C@H](O)[C@@H]2O)NC(=O)[C@H](CCC(N)=O)NC(=O)[C@@H](N)[C@@H](C)O)CSSC[C@@H]2NC(=O)[C@H]([C@@H](C)O)NC(=O)[C@H]([C@@H](C)O)NC(=O)CNC(=O)[C@H](CO)NC(=O)[C@H](C)NC(=O)[C@H](CSSC[C@@H](C(=O)N[C@@H](CC(C)C)C(=O)O)NC(=O)[C@H](CCC(N)=O)NC(=O)[C@H](CO)NC(=O)[C@H](Cc3ccc(O)cc3)NC(=O)[C@H](Cc3ccc(O)cc3)NC(=O)[C@@H]3CCCN3C(=O)[C@H](CC(N)=O)NC(=O)[C@H](CC(C)C)NC(=O)[C@H](C(C)C)NC(=O)[C@H](CCC(N)=O)NC2=O)NC(=O)[C@H](C(C)C)NC(=O)[C@H]([C@@H](C)O)NC(=O)[C@@H]2CCCN2C(=O)CNC(=O)[C@H](CO)NC(=O)[C@H](Cc2ccc(O)cc2)NC(=O)CNC1=O` [CBM variant 31] (H-TQS(X8)HYGQCGGIGYSGPTVCASGTTCQVLNPYYSQCL-OH; disulfide 8-25, 19-35), the “Change in Half-Life” value worked out at 12 min and the half-life was 25.8 ± 3 min. Taken in the same sequence, the figures for `CC[C@H](C)[C@@H]1NC(=O)CNC(=O)CNC(=O)[C@@H](NC(=O)[C@H](CCC(N)=O)NC(=O)CNC(=O)[C@H](C)NC(=O)[C@H](Cc2c[nH]cn2)NC(=O)[C@H](CO[C@H]2O[C@H](CO)[C@@H](O)[C@H](O)[C@@H]2O[C@H]2O[C@H](CO)[C@@H](O)[C@H](O)[C@@H]2O)NC(=O)[C@H](CCC(N)=O)NC(=O)[C@@H](N)[C@@H](C)O)CSSC[C@@H]2NC(=O)[C@H]([C@@H](C)O)NC(=O)[C@H]([C@@H](C)O)NC(=O)CNC(=O)[C@H](CO)NC(=O)[C@H](C)NC(=O)[C@H](CSSC[C@@H](C(=O)N[C@@H](CC(C)C)C(=O)O)NC(=O)[C@H](CCC(N)=O)NC(=O)[C@H](CO)NC(=O)[C@H](Cc3ccc(O)cc3)NC(=O)[C@H](Cc3ccc(O)cc3)NC(=O)[C@@H]3CCCN3C(=O)[C@H](CC(N)=O)NC(=O)[C@H](CC(C)C)NC(=O)[C@H](C(C)C)NC(=O)[C@H](CCC(N)=O)NC2=O)NC(=O)[C@H](C(C)C)NC(=O)[C@H]([C@@H](C)O)NC(=O)[C@@H]2CCCN2C(=O)CNC(=O)[C@H](CO)NC(=O)[C@H](Cc2ccc(O)cc2)NC(=O)CNC1=O` [CBM variant 32] (H-TQS(X2)HAGQCGGIGYSGPTVCASGTTCQVLNPYYSQCL-OH; disulfide 8-25, 19-35) were 1.2 min and 6 ± 1.2 min.

Take `CC[C@H](C)[C@@H]1NC(=O)CNC(=O)CNC(=O)[C@@H](NC(=O)[C@H](CCC(N)=O)NC(=O)CNC(=O)[C@H](Cc2ccc(O)cc2)NC(=O)[C@H](Cc2c[nH]cn2)NC(=O)[C@@H](NC(=O)[C@H](CCC(N)=O)NC(=O)[C@@H](N)[C@@H](C)O)[C@@H](C)O[C@H]2O[C@H](CO)[C@@H](O)[C@H](O)[C@@H]2O[C@H]2O[C@H](CO)[C@@H](O)[C@H](O)[C@@H]2O)CSSC[C@@H]2NC(=O)[C@H]([C@@H](C)O)NC(=O)[C@H]([C@@H](C)O)NC(=O)CNC(=O)[C@H](CO)NC(=O)[C@H](C)NC(=O)[C@H](CSSC[C@@H](C(=O)N[C@@H](CC(C)C)C(=O)O)NC(=O)[C@H](CCC(N)=O)NC(=O)[C@H](CO)NC(=O)[C@H](Cc3ccc(O)cc3)NC(=O)[C@H](Cc3ccc(O)cc3)NC(=O)[C@@H]3CCCN3C(=O)[C@H](CC(N)=O)NC(=O)[C@H](CC(C)C)NC(=O)[C@H](C(C)C)NC(=O)[C@H](CCC(N)=O)NC2=O)NC(=O)[C@H](C(C)C)NC(=O)[C@H]([C@@H](C)O)NC(=O)[C@@H]2CCCN2C(=O)CNC(=O)[C@H](CO)NC(=O)[C@H](Cc2ccc(O)cc2)NC(=O)CNC1=O` [CBM variant 33] (H-TQT(X2)HYGQCGGIGYSGPTVCASGTTCQVLNPYYSQCL-OH; disulfide 8-25, 19-35): the “Change in Half-Life” value turned out to be 72 min and the half-life was 93.6 ± 24 min.

On to `CC[C@H](C)[C@@H]1NC(=O)CNC(=O)CNC(=O)[C@@H](NC(=O)[C@H](CCC(N)=O)NC(=O)CNC(=O)[C@H](Cc2ccc(O)cc2)NC(=O)[C@H](Cc2c[nH]cn2)NC(=O)[C@H](CS[C@H]2O[C@H](CO)[C@@H](O)[C@H](O)[C@@H]2O[C@H]2O[C@H](CO)[C@@H](O)[C@H](O)[C@@H]2O)NC(=O)[C@H](CCC(N)=O)NC(=O)[C@@H](N)[C@@H](C)O)CSSC[C@@H]2NC(=O)[C@H]([C@@H](C)O)NC(=O)[C@H]([C@@H](C)O)NC(=O)CNC(=O)[C@H](CO)NC(=O)[C@H](C)NC(=O)[C@H](CSSC[C@@H](C(=O)N[C@@H](CC(C)C)C(=O)O)NC(=O)[C@H](CCC(N)=O)NC(=O)[C@H](CO)NC(=O)[C@H](Cc3ccc(O)cc3)NC(=O)[C@H](Cc3ccc(O)cc3)NC(=O)[C@@H]3CCCN3C(=O)[C@H](CC(N)=O)NC(=O)[C@H](CC(C)C)NC(=O)[C@H](C(C)C)NC(=O)[C@H](CCC(N)=O)NC2=O)NC(=O)[C@H](C(C)C)NC(=O)[C@H]([C@@H](C)O)NC(=O)[C@@H]2CCCN2C(=O)CNC(=O)[C@H](CO)NC(=O)[C@H](Cc2ccc(O)cc2)NC(=O)CNC1=O` [CBM variant 34] (H-TQC(X2)HYGQCGGIGYSGPTVCASGTTCQVLNPYYSQCL-OH; disulfide 8-25, 19-35), for which the half-life was 10.8 ± 1.2 min.
